The target in test [1] is EphA2 (Homo sapiens (Human), UniProt P29317). The test can be described thus: EphA2 kinase inhibition, luciferase-coupled chemiluminescent assay (LCCA).
Description: (§1) Kinase activity and compound inhibition are investigated using one or more of the three assay formats described below. The ATP concentrations are selected near its Michaelis-Menten constant (KM) for each individual kinase. Dose-response experiments are performed at ten different inhibitor concentrations in a 384-well plate format. […] Typically H is close to unity.
(§2) In the LCCA assays, kinase activity is measured by the ATP consumption that is accurately measured by luciferase-coupled chemiluminescence. Greiner 384-well white clear bottom medium binding plates are used for LCCA. Briefly the kinase reaction is initiated by mixing compounds, ATP and kinases in a 20 μL volume. At the end of the kinase reaction, a 20 μL luciferase-luciferin mix is added and the chemiluminescent signal is read on a Wallac Victor^2 reader.
For test [2], the target named is KDR (Homo sapiens (Human), UniProt P35968). The test can be described thus: KDR kinase inhibition, luciferase-coupled chemiluminescent assay (LCCA).
Description: as §1, §2
In test [3] the target is EGFR (Homo sapiens (Human), UniProt P00533). The test can be described thus: EGFR kinase inhibition, luciferase-coupled chemiluminescent assay (LCCA).
Test [4] concerns the target ErbB2 (Homo sapiens (Human), UniProt P04626). The test can be described thus: ErbB2 kinase inhibition, AlphaScreen. It is filed as biochemical. As to the method:
Kinase activity and compound inhibition are investigated using one or more of the three assay formats described below. The ATP concentrations are selected near its Michaelis-Menten constant (KM) for each individual kinase. Dose-response experiments are performed at ten different inhibitor concentrations in a 384-well plate format. […] These parameters are obtained by nonlinear regression algorithm built into ActivityBase software (available from ID Business Solutions Ltd., of Guildford, Surrey, UK). ^33P Phosphoryl Transfer Assay (Radiometric)
In general terms: Bead proximity is the source of the signal in Alpha formats.

Test [5] concerns the target EphB4 (Homo sapiens (Human), UniProt P54760). Description: EphB4 kinase inhibition, 33P phosphoryl transfer assay (radiometric). The format is biochemical.

Read-outs that look alike come from different tables or passages of the source. A value given as a limit tells only on which side of the number the result lay.

Chain of EphA2 (P29317 598-890): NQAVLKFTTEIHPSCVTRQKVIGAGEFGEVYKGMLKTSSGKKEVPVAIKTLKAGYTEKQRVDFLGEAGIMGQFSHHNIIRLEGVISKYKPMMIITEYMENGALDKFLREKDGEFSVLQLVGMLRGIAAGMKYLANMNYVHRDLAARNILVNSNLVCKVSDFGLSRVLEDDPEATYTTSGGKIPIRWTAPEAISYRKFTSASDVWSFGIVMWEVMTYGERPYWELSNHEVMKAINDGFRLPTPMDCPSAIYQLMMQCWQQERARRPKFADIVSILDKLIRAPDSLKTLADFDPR
Chain of KDR (P35968 807-1356): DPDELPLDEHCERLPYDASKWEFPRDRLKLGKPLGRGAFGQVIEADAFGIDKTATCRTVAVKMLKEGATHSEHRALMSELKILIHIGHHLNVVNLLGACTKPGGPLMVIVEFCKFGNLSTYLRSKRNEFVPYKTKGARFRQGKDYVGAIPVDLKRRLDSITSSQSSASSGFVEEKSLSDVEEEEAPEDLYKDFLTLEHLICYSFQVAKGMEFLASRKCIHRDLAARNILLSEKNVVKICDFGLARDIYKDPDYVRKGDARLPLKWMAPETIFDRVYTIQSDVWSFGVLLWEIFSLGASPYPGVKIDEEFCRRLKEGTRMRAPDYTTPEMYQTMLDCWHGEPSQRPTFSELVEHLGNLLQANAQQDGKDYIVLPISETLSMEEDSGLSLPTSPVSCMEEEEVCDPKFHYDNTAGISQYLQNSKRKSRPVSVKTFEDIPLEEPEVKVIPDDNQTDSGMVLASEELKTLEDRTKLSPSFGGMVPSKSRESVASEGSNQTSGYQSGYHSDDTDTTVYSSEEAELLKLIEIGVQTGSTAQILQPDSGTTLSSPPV
Chain of EphB4 (P54760 605-890): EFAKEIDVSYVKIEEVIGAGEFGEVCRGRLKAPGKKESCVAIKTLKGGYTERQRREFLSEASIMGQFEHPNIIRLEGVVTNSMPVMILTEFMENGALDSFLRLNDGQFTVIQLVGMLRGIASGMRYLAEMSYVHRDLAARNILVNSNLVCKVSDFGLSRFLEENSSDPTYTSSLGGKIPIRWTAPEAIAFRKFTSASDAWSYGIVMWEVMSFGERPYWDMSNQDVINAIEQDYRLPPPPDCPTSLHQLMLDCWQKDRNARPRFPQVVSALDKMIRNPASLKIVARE

One may read the IC50 as the midpoint of a concentration-inhibition curve. With “N-(3,4-dichlorophenyl)-7-{[(5-ethyl-4,5,6,7-tetrahydro[1,3]thiazolo[5,4-c]pyridin-2-yl)methyl]oxy}-6-(methyloxy)quinazolin-4-amine hydrochloride [Example 35]”, the IC50 was 50 to 1000 nM in test [1] (read-out: EphA2 IC50); below 50 nM in test [2] (read-out: KDR IC50); below 50 nM in test [3] (read-out: EGFR IC50); 50 to 1000 nM in test [4]; 50 to 1000 nM in test [5].

Consider `COc1cc2c(Nc3ccc(Cl)c(Cl)c3)ncnc2cc1OCCC1CCCN1C` (stereo not shown) [Example 237, N-(3,4-dichlorophenyl)-6-(methyloxy)-7-{[2-(1-methylpyrrolidin-2-yl)ethyl]oxy}quinazolin-4-amine], for which the IC50 in test [1] (read-out: EphA2 IC50), in test [2] (read-out: KDR IC50), in test [3] (read-out: EGFR IC50), in test [4] and in test [5] was below 50 nM in each case.

For `COc1cc2c(Nc3ccc(Cl)c(Cl)c3)ncnc2cc1OCc1noc(C2CCCCN2C(=O)OC(C)(C)C)n1` (stereo not shown) [Example 196, 1,1-dimethylethyl 2-[3-({[4-[(3,4-dichlorophenyl)amino]-6-(methyloxy)quinazolin-7-yl]oxy}methyl)-1,2,4-oxadiazol-5-yl]piperidine-1-carboxylate], the 50% inhibitory concentration (IC50) in test [1] (read-out: EphA2 IC50), in test [2] (read-out: KDR IC50), in test [3] (read-out: EGFR IC50), in test [4] and in test [5] was below 50 nM each time.

Consider “N-(3,4-dichlorophenyl)-6-(methyloxy)-7-{[(5-methyl-4,5,6,7-tetrahydro[1,3]thiazolo[5,4-c]pyridin-2-yl)methyl]oxy}quinazolin-4-amine hydrochloride [Example 34]”, for which the 50% inhibitory concentration (IC50) in test [1] (read-out: EphA2 IC50) is 50 to 1000 nM; in test [2] (read-out: KDR IC50), 50 to 1000 nM; in test [3] (read-out: EGFR IC50), below 50 nM; in test [4] it was below 50 nM; in test [5] it was 50 to 1000 nM.

With `COc1cc2c(Nc3cc(Br)cc(C(F)(F)F)c3)ncnc2cc1O[C@@H]1CO[C@@H]2[C@H]1OC[C@H]2F` [Example 127, 1,4:3,6-dianhydro-5-O-[4-{[3-bromo-5-(trifluoromethyl)phenyl]amino}-6-(methyloxy)quinazolin-7-yl]-2-deoxy-2-fluoro-D-iditol], the IC50 in test [1] (read-out: EphA2 IC50), in test [2] (read-out: KDR IC50), in test [3] (read-out: EGFR IC50), in test [4] and in test [5] was below 50 nM in each case.

`COc1cc2c(Nc3ccc(Cl)c(Cl)c3)ncnc2cc1OCc1nc([C@@H]2CCCN2)no1` [Example 243, N-(3,4-dichlorophenyl)-6-(methyloxy)-7-[({3-[(2S)-pyrrolidin-2-yl]-1,2,4-oxadiazol-5-yl}methyl)oxy]quinazolin-4-amine]: the concentration for half-maximal inhibition (IC50) in test [1] (read-out: EphA2 IC50), in test [2] (read-out: KDR IC50), in test [3] (read-out: EGFR IC50), in test [4] and in test [5] was below 50 nM in each case.

In the case of `CCN(CC)c1ccc(-c2csc(COc3cc4ncnc(Nc5ccc(Cl)c(Cl)c5)c4cc3OC)n2)cc1` [Example 199, N-(3,4-dichlorophenyl)-7-[({4-[4-(diethylamino)phenyl]-1,3-thiazol-2-yl}methyl)oxy]-6-(methyloxy)quinazolin-4-amine], the 50% inhibitory concentration (IC50) in test [1] (read-out: EphA2 IC50), in test [2] (read-out: KDR IC50), in test [3] (read-out: EGFR IC50), in test [4] and in test [5] was below 50 nM throughout.

Turning to `CCN1CCC(c2nc(COc3cc4ncnc(Nc5ccc(Cl)c(Cl)c5)c4cc3OC)no2)CC1` [Example 238, N-(3,4-dichlorophenyl)-7-({[5-(1-ethylpiperidin-4-yl)-1,2,4-oxadiazol-3-yl]methyl}oxy)-6-(methyloxy)quinazolin-4-amine], the IC50 in test [1] (read-out: EphA2 IC50), in test [2] (read-out: KDR IC50), in test [3] (read-out: EGFR IC50), in test [4] and in test [5] was below 50 nM throughout.

Regarding `COc1cc2c(Nc3ccc(Cl)c(Cl)c3)ncnc2cc1OCc1ccc2nc(C(F)(F)F)cc(Cl)c2c1` [Example 236, 7-({[4-chloro-2-(trifluoromethyl)quinolin-6-yl]methyl}oxy)-N-(3,4-dichlorophenyl)-6-(methyloxy)quinazolin-4-amine], the IC50 in test [1] (read-out: EphA2 IC50), in test [2] (read-out: KDR IC50), in test [3] (read-out: EGFR IC50), in test [4] and in test [5] was below 50 nM each time.

Turning to `COc1cc2c(Nc3ccc(Cl)c(Cl)c3)ncnc2cc1O[C@@H]1CO[C@@H]2[C@H]1OC[C@H]2F` [Example 119, 1,4:3,6-dianhydro-2-deoxy-5-O-[4-[(3,4-dichlorophenyl)amino]-6-(methyloxy)quinazolin-7-yl]-2-fluoro-D-iditol], the concentration for half-maximal inhibition (IC50) in test [1] (read-out: EphA2 IC50), in test [2] (read-out: KDR IC50), in test [3] (read-out: EGFR IC50), in test [4] and in test [5] was below 50 nM throughout.

With `COc1cc2c(Nc3ccc(Cl)c(Cl)c3)ncnc2cc1OCc1nc(-c2ccc(C(C)(C)C)cc2)no1` [Example 226, N-(3,4-dichlorophenyl)-7-[({3-[4-(1,1-dimethylethyl)phenyl]-1,2,4-oxadiazol-5-yl}methyl)oxy]-6-(methyloxy)quinazolin-4-amine], the 50% inhibitory concentration (IC50) in test [1] (read-out: EphA2 IC50) was 50 to 1000 nM; in test [2] (read-out: KDR IC50) it was below 50 nM; in test [3] (read-out: EGFR IC50), below 50 nM; in test [4], below 50 nM; in test [5] it was below 50 nM.

Consider “N-(3,4-dichlorophenyl)-6-(methyloxy)-7-({[3-(4-methylpiperazin-1-yl)-1,2,4-oxadiazol-5-yl]methyl}oxy)quinazolin-4-amine [Example 33]”, for which the IC50 in test [1] (read-out: EphA2 IC50) is 50 to 1000 nM; in test [2] (read-out: KDR IC50), below 50 nM; in test [3] (read-out: EGFR IC50), below 50 nM; in test [4], 50 to 1000 nM; in test [5], below 50 nM.

Turning to `COc1cc2c(Nc3ccc(Cl)c(Cl)c3)ncnc2cc1OCC1CN(C(=NC#N)N2CCCCC2)CCO1` (stereo in doubt) [Example 216, [(1E)-[2-({[4-[(3,4-dichlorophenyl)amino]-6-(methyloxy)quinazolin-7-yl]oxy}methyl)morpholin-4-yl](piperidin-1-yl)methylidene]cyanamide], the 50% inhibitory concentration (IC50) in test [1] was 50 to 1000 nM; in test [2], 50 to 1000 nM; in test [3], below 50 nM; in test [4], below 50 nM; in test [5] it was below 50 nM.

For the molecule `COc1cc2c(Nc3cc(Cl)c(Cl)cc3F)ncnc2cc1O[C@H]1CO[C@H]2[C@@H]1OC[C@@H]2OC` [Example 69, 1,4:3,6-dianhydro-2-O-[4-[(4,5-dichloro-2-fluorophenyl)amino]-6-(methyloxy)quinazolin-7-yl]-5-O-methyl-L-iditol], the IC50 in test [1] (read-out: EphA2 IC50), in test [2] (read-out: KDR IC50), in test [3] (read-out: EGFR IC50), in test [4] and in test [5] was below 50 nM in each case.

(Values after patent US9796704B2, “Substituted quinazolines as receptor-type kinase inhibitors” (Symphony Evolution, Inc., priority 2002, dated 2017).)
